Test results: PubChem BioAssay (NCI)
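Five compound concentrations were applied to cells in 96-well plates for 48 hours; endpoints were derived by simple linear interpolation of the resulting dose-response curve. GI50 = concentration required for 50% inhibition of growth. TGI: total growth inhibition.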

Assays:
Test in all cases: growth of human tumour cells (NCI), 48 h
A498 renal = test system: A498 renal
HT29 colon = test system: HT29 colon
K-562 leukemia = test system: K-562 leukemia
M14 melanoma = test system: M14 melanoma
MCF7 breast = test system: MCF7 breast
MDA-MB-435 = test system: MDA-MB-435
SK-OV-3 ovarian = test system: SK-OV-3 ovarian
SW-620 colon = test system: SW-620 colon
UACC-62 melanoma = test system: UACC-62 melanoma
UO-31 renal = test system: UO-31 renal

Cn1c(=O)c(Oc2ccc(F)cc2F)cc2cnc(NC3CCS(=O)(=O)CC3)nc21
GI50 (A498 renal): > 25 µM | TGI (A498 renal): > 25 µM | GI50 (HT29 colon): > 25 µM | TGI (HT29 colon): > 25 µM | GI50 (K-562 leukemia): > 25 µM | TGI (K-562 leukemia): > 25 µM | GI50 (M14 melanoma): > 25 µM | TGI (M14 melanoma): > 25 µM | GI50 (MCF7 breast): > 25 µM | TGI (MCF7 breast): > 25 µM | GI50 (MDA-MB-435): > 25 µM | TGI (MDA-MB-435): > 25 µM | GI50 (SK-OV-3 ovarian): > 20 µM | TGI (SK-OV-3 ovarian): > 25 µM | GI50 (SW-620 colon): > 25 µM | TGI (SW-620 colon): > 25 µM | GI50 (UACC-62 melanoma): > 25 µM | TGI (UACC-62 melanoma): > 25 µM | GI50 (UO-31 renal): > 25 µM | TGI (UO-31 renal): > 25 µM
